Measured values reported in US6939680B2 (H. Lundbeck A/S, priority 1990, dated 2005).
Read-outs that look alike come from different tables or passages of the source.

How the values were obtained:
[1] = target: T1, human dopamine D1 receptor clone GL-30 (dopamine D1β receptor) (Homo sapiens, UniProt P21918); assay: [3H]SCH-23390 radioligand binding (saturation and competition) to membranes of Cos-7 cells transfected with clone GL-30
T1 construct: expressed in transfected cells; host or cells: Cos-7 cells, transient transfection with pcEXV-3 carrying GL-30

[2] = test system: DA1 receptor; conditions: clinical trials; cited from earlier work
[3] = competition binding, GL-30 in Cos-7 membranes

T1 sequence (P21918 whole entry): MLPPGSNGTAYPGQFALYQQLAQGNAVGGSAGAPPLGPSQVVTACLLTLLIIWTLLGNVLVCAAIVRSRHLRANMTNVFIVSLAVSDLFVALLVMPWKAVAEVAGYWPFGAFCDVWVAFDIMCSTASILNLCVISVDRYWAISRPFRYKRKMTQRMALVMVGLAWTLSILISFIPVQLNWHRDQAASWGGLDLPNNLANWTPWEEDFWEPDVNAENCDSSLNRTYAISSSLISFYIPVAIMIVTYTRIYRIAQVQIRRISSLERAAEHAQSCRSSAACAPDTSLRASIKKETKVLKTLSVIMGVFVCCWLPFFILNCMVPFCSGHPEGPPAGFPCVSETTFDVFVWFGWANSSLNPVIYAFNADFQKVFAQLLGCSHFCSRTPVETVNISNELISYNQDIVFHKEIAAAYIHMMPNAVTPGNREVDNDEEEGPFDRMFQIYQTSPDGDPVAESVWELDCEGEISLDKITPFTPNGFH

CCN1CCC[C@H]1CNC(=O)c1cc(S(N)(=O)=O)ccc1OC [(−) sulpiride]
potency/affinity in displacing [3H]SCH-23390 binding (in words) [1, 3]: low affinity

COc1ccc2c(c1O)-c1c3c(cc4c1[C@H](C2)N(C)CC4)OCO3 [bulbocapnine]
Ki values compared with those reported for the D1 receptor ([1]; versus native rat and human brain tissues and Cos-7 cells transfected with the previously cloned D1 gene): comparable

Oc1ccc(C2CNCCc3c2cc(O)c(O)c3Cl)cc1 (stereo not drawn) [fenoldopam]
renal vasodilatory action [2]: potent renal vasodilatory action

NC[C@H](O)c1ccc(O)c(O)c1 [norepinephrine]
potency/affinity in displacing [3H]SCH-23390 binding (in words) [1, 3]: inactive

CCCN1CCC[C@@H]2Cc3n[nH]cc3C[C@H]21 [quinpirole]
potency/affinity in displacing [3H]SCH-23390 binding (in words) [1]: low affinity

cis-flupenthixol
potency/affinity in displacing [3H]SCH-23390 binding (in words) [1]: most potent
